Patent US20150297605A1, “METHODS FOR TREATING CANCER USING TOR KINASE INHIBITOR COMBINATION THERAPY” (Signal Pharmaceuticals, LLC, priority 2014, published 2015)

Assays:
Format in all cases: cell-based
[1] = system: HCC-1806 breast cancer cell line; assay: Anti-proliferation assay, synergy score, HCC-1806; settings: in combination with Compound 1, 72 h, mean self cross score + 2σ 5.05
Protocol: (§1) Anti-Proliferation Assay. Cells were thawed from a liquid nitrogen preserved state. Once cells expanded and divided at their expected doubling times, screening began.
(§2) Cells were equilibrated in assay plates via centrifugation and placed in incubators attached to the Dosing Modules at 37° C. for twenty-four hours before treatment. […] These T zero (T0) plates were read using ultra-sensitive luminescence on Envision Plate Readers. Treated assay plates were incubated with compound (single compound or combination) for seventy-two hours. After seventy-two hours, platesweare developed for endpoint analysis using ATPLite. […] The calculation for synergy score is provided below.
(§3) Growth Inhibition (GI) was used as a measure of cell viability. The cell viability of vehicle was measured at the time of dosing (T0) and after seventy-two hours (T72). […] A GI 200% represents complete death of all cells in the culture well. Compounds reaching an activity plateau of GI 200% are considered cytotoxic. GI is calculated by applying the following test and equation: […]
(§4) where T is the signal measure for a test article, V is the vehicle-treated control measure, and V0 is the vehicle control measure at time zero. This formula is derived from the Growth Inhibition calculation used in the National Cancer Institute's NCI-60 high throughput screen.
(§5) Synergy Score Analysis. Synergy scores were determined using the Chalice Software (Zalicus Inc., Cambridge Mass.). […] The Synergy Score is calculated as: […]
(§6) The fractional inhibition for each component agent and combination point in the matrix was calculated relative to the median of all vehicle-treated control wells. […]
(§7) In order to objectively establish hit criteria for the combination screen analysis, twenty compounds were selected to be self-crossed across the seventeen cell line panel as a means to empirically determine a baseline additive, non-synergistic response. The identity of the twenty self-cross compounds was determined by selecting compounds with a variety of maximum response values and single agent dose response steepness.

[2] = system: HCC-1428 breast cancer cell line; assay: Anti-proliferation assay, synergy score, HCC-1428; settings: in combination with Compound 1, 72 h, mean self cross score + 2σ 3.22
Protocol: as §1, §2, §3, §4, §5, §6, §7

[3] = system: MDA-MB-453 breast cancer cell line; assay: Anti-proliferation assay, synergy score, MDA-MB-453; settings: in combination with Compound 1, 72 h, mean self cross score + 2σ 2.99
Protocol: as §1, §2, §3, §4, §5, §6, §7

[4] = system: BT-20 breast cancer cell line; assay: Anti-proliferation assay, synergy score, BT-20; settings: in combination with Compound 1, 72 h, mean self cross score + 2σ 3.23
Protocol: as §1, §2, §3, §4, §5, §6, §7

[5] = system: HCC-1187 breast cancer cell line; assay: Anti-proliferation assay, synergy score, HCC-1187; settings: in combination with Compound 1, 72 h, mean self cross score + 2σ 4.80
Protocol: as §1, §2, §3, §4, §5, §6, §7

[6] = system: BT-474 breast cancer cell line; assay: Anti-proliferation assay, synergy score, BT-474; settings: in combination with Compound 1, 72 h, mean self cross score + 2σ 3.37
Protocol: as §1, §2, §3, §4, §5, §6, §7

[7] = system: HCC-1500 breast cancer cell line; assay: Anti-proliferation assay, synergy score, HCC-1500; settings: in combination with Compound 1, 72 h, mean self cross score + 2σ 4.17
Protocol: as §1, §2, §3, §4, §5, §6, §7

[8] = system: HCC-1937 breast cancer cell line; assay: Anti-proliferation assay, synergy score, HCC-1937; settings: in combination with Compound 1, 72 h, mean self cross score + 2σ 2.89
Protocol: as §1, §2, §3, §4, §5, §6, §7

[9] = system: MDA-MB-175-VII breast cancer cell line; assay: Anti-proliferation assay, synergy score, MDA-MB-175-VII; settings: in combination with Compound 1, 72 h, mean self cross score + 2σ 2.82
Protocol: as §1, §2, §3, §5, §6

[10] = system: BT-549 breast cancer cell line; assay: Anti-proliferation assay, synergy score, BT-549; settings: in combination with Compound 1, 72 h, mean self cross score + 2σ 3.94
Protocol: as §1, §2, §3, §4, §5, §6, §7

[11] = system: SKOV3 (ovarian cancer, romidepsin resistant cell line); assay: Anti-proliferation assay (CellTiter-Glo), Bliss independence model, SKOV3; settings: combination treatment with Romidepsin, SKOV3 (R), 72 h, greater than 10% considered synergistic
Protocol: (§8) Anti-Proliferation Assay. […] Cells were thawed from a liquid nitrogen preserved state. Once cells were expanded and divided at their expected doubling times, screening began. Cells were seeded in their respective growth media in 96-well tissue culture treated plates at 2000 cells/well and placed in incubators at 37° C. the night before treatment. […] These T zero (T0) plates were read using luminescence on Spectramax Plate Readers. Treated assay plates were incubated with Compound for seventy-two hours. After seventy-two hours, plates were developed for endpoint analysis using CellTiter-Glo. The calculation for synergy score is provided below.
(§9) Growth Inhibition (GI) was used as a measure of cell viability. The cell viability of vehicle was measured at the time of dosing (T0) and after seventy-two hours (T72). A GI reading of 0% represents no growth inhibition—cells treated with compound and T72 vehicle signals are matched. A GI 100% represents complete growth inhibition—cells treated by compound and T0 vehicle signals are matched. […] A GI 200% represents complete death of all cells in the culture well. […] GI is calculated by applying the following test and equation: […]
(§10) We next compared the expected compound effect to the observed compound effect, and calculated the differences between the observed and the expected cell viability, expressed as % of control. […]

[12] = system: 5637 (bladder cancer, romidepsin sensitive cell line); assay: Anti-proliferation assay (CellTiter-Glo), Bliss independence model, 5637; settings: combination treatment with Romidepsin, 5637 (S), 72 h, greater than 10% considered synergistic
Protocol: as §8, §9, §10

[13] = system: 5637 and SKOV3 cancer cell lines; assay: Anti-proliferation assay (CellTiter-Glo), Bliss independence model, overall conclusion; settings: combination with romidepsin
Protocol: as §8, §9, §10

Row | SMILES | Synergy Score [1] | Synergy Score [2] | Synergy Score [3] | Synergy Score [4] | Synergy Score [5] | Synergy Score [6] | Synergy Score [7] | Synergy Score [8] | Synergy Score [9] | Synergy Score [10] | differences between observed and expected cell viability (% of control) [11] [%] | differences between observed and expected cell viability (% of control) [12] [%] | combination effect (conclusion in words) [13]
1 | O=C(/C=C/c1cccc(S(=O)(=O)Nc2ccccc2)c1)NO [Belinostat] | 11.40 | 7.23 | 14.80 | 9.26 | 4.60 | 6.88 | 4.58 | 14.50 | 3.21 | 9.09 |  |  | 
2 | CCN1C(=O)CNc2ncc(-c3ccc(-c4nc[nH]n4)nc3C)nc21 [Compound 1, 1-ethyl-7-(2-methyl-6-(1H-1,2,4-triazol-3-yl)pyridin-3-yl)-3,4-dihydropyrazino[2,3-b]pyrazin-2(1H)-one] |  |  |  |  |  |  |  |  |  |  | 23 | 16 | 
3 | CO[C@H]1CC[C@H](N2C(=O)CNc3ncc(-c4ccc(C(C)(C)O)nc4)nc32)CC1 [Compound 2, 7-(6-(2-hydroxypropan-2-yl)pyridin-3-yl)-1-((1r,4r)-4-methoxycyclohexyl)-3,4-dihydropyrazino-[2,3-b]pyrazin-2(1H)-one] |  |  |  |  |  |  |  |  |  |  | 27 | 19 | synergism was observed
4 | Nc1ccccc1NC(=O)c1ccc(CNC(=O)OCc2cccnc2)cc1 [MS-275] | 10.00 | 1.65 | 14.60 | 5.84 | 7.64 | 7.79 | 2.18 | 9.75 | 6.71 | 11.80 |  |  | 
5 | C/C=C1\NC(=O)[C@H]2CSSCC/C=C/[C@H](CC(=O)N[C@H](C(C)C)C(=O)N2)OC(=O)[C@H](C(C)C)NC1=O [Romidepsin, (1S,4S,7Z,10S,16E,21R)-7-ethylidene-4,21-bis(1-methylethyl)-2-oxa-12,13-dithia-5,8,20,23-tetrazabicyclo[8.7.6]tricos-16-ene-3,6,9,19,22-pentone] | 8.39 | 4.80 | 13.80 | 8.00 | 6.10 | 6.00 | 4.80 | 12.50 |  | 12.00 |  |  | 
